Experimental data published in paper PMC4674085, “Towards Prebiotic Catalytic Amyloids Using High Throughput Screening” (PLoS ONE, 2015).

Assay: NMR-based 4NPA hydrolysis assay at pH 4.3
Assay type: biochemical
Settings: 4NPA hydrolysis by 1D-1H NMR, 50 mM d3-NaOAc pH 4.3, 2% d6-DMSO, 40 μM total purified peptide (mixture 20 μM each), 0.9 mM 4NPA, 25°C, over 15 days, first order fit, no zinc(II)
Protocol: Purified peptides were solubilized in deuterated DMSO with 1% TFA at a concentration of 4 mM and subsequently diluted to 160 μM in 50 mM deuterated NaOAc buffer at pH 4.3. In the case of the peptide mixture fibrillization (12/21), each peptide was 80 μM. Fibrillization occurred over 5 days after which the sample was diluted to 40 μM total peptide in 50 mM buffer with 0.9 mM 4NPA (from a 90 mM stock solution in d6-DMSO) and a final concentration of d6-DMSO of 2%. From this reaction mixture 500 μl was transferred to a 5 mm NMR tube and measurements were performed in a 600 MHz Bruker NMR spectrometer equipped with a cryo-probe.
The hydrolysis kinetics were monitored in a continuous series of 1D-^1H experiments each consisting of 32 scans at 25°C and each requiring 17 min. In this manner, several time segments lasting between 8 and 17 hours were collected over a period of 15 days. Between measurements, the samples were kept at 25°C.
Data processing and peak integration was performed with Topspin3.2 (Bruker). Relevant peaks used for the analysis were the 4 aromatic protons of both 4NPA and of its product (p-nitrophenol) as well as the methyl groups of 4NPA and acetic acid. The ratio of the sum of integrals for the product protons to the sum of integrals for all protons was used to calculate the substrate concentration. […]

## Ac-YVHVHVDV-NH2 [Peptide 21, Ac-YVHVHVDV-CONH2]
  k cat/K M: 1598±20 10^-6M^-1s^-1
